Reference: patent US11000033B2, “Ketone or oxime compound, and herbicide” (NISSAN CHEMICAL CORPORATION, priority 2014, dated 2021)

Key:
Type in all cases: in vivo
wheat = test: Test Example 4: effect on crop by soil treatment (symbol e); conditions: application herbicide amount 320 g/ha
Summary of the method: (§1)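 Grown at 25° C. to 30° C. in a greenhouse, the crops came from seed sown spot-wise in sterilized diluvial soil under roughly 1.5 cm of covering soil.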

soybean [1] = test: Test Example 4: effect on crop by soil treatment (symbol d); conditions: application herbicide amount 320 g/ha
Summary of the method: as §1

Avena fatua = test: Test Example 4: herbicidal effect by soil treatment (symbol I); conditions: application herbicide amount 320 g/ha
Summary of the method: (§2)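 Seeds were sown in sterilized diluvial soil, covered with about 1.5 cm of soil, and the soil surface was sprayed with a water-diluted emulsion of the compound at a predetermined rate. Plants grew in a greenhouse at 25° C. to 30° C.; effects were scored visually 3 weeks after application.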

beet = test: Test Example 4: effect on crop by soil treatment (symbol f); conditions: application herbicide amount 320 g/ha
Summary of the method: as §1

Abutilon theophrasti = test: Test Example 4: herbicidal effect by soil treatment (symbol M); conditions: application herbicide amount 320 g/ha
Summary of the method: as §2

Amaranthus retroflexus = test: Test Example 5: herbicidal effect by foliage application, plastic box (symbol N); conditions: 320 g/ha, 3 weeks after application
Summary of the method: (§3)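 Seeds were sown in sterilized diluvial soil, covered with about 1.5 cm of soil and grown 14 days in a greenhouse at 25° C. to 30° C. An emulsifiable formulation diluted in water to a set rate was sprayed over foliage, and injury was scored 3 weeks later.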

Lolium multiflorum Lam. [2] = test: Test Example 5: herbicidal effect by foliage application, plastic box (symbol K); conditions: 320 g/ha, 3 weeks after application
Summary of the method: as §3

soybean [3] = test: Test Example 5: effect on crop by foliage application, plastic box (symbol d); conditions: 320 g/ha, 3 weeks after application
Summary of the method: (§4)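 Plants were raised from seed in a greenhouse (25° C. to 30° C.) after sowing in a plastic box of sterilized diluvial soil.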

rapeseed = test: Test Example 5: effect on crop by foliage application, plastic box (symbol g); conditions: 320 g/ha, 3 weeks after application
Summary of the method: as §4

[4] = system: Echinochloa crus-galli var. crus-galli; test: Test Example 5: herbicidal effect by foliage application, plastic box (symbol H); conditions: 320 g/ha, 3 weeks after application
Summary of the method: as §3

rice = test: Test Example 4: effect on crop by soil treatment (symbol b); conditions: application herbicide amount 320 g/ha
Summary of the method: as §1

Digitaria ciliaris = test: Test Example 5: herbicidal effect by foliage application, plastic box (symbol F); conditions: 320 g/ha, 3 weeks after application
Summary of the method: as §3

corn = test: Test Example 5: effect on crop by foliage application, plastic box (symbol c); conditions: 320 g/ha, 3 weeks after application
Summary of the method: as §4

[5] = system: Echinochloa crus-galli var. crus-galli; test: Test Example 4: herbicidal effect by soil treatment (symbol H); conditions: application herbicide amount 320 g/ha
Summary of the method: as §2

Lolium multiflorum Lam. [6] = test: Test Example 4: herbicidal effect by soil treatment (symbol K); conditions: application herbicide amount 320 g/ha
Summary of the method: as §2

Veronica persica = test: Test Example 5: herbicidal effect by foliage application, plastic box (symbol R); conditions: 320 g/ha, 3 weeks after application
Summary of the method: as §3

| Compound | Effect on crop grade, e: wheat (wheat) | Effect on crop grade, d: soybean (soybean [1]) | Herbicidal effect grade, I: Avena fatua (Avena fatua) | Effect on crop grade, f: beet (beet) | Herbicidal effect grade, M: Abutilon theophrasti (Abutilon theophrasti) | N: Amaranthus retroflexus, herbicidal effect (criteria of Test Example 1) (Amaranthus retroflexus) | K: Lolium multiflorum Lam., herbicidal effect (criteria of Test Example 1) (Lolium multiflorum Lam. [2]) | d: soybean, effect on crop (criteria of Test Example 1) (soybean [3]) | g: rapeseed, effect on crop (criteria of Test Example 1) (rapeseed) | H: Echinochloa crus-galli var. crus-galli, herbicidal effect (criteria of Test Example 1) [4] | Effect on crop grade, b: directly sowed rice plant (rice) | F: Digitaria ciliaris, herbicidal effect (criteria of Test Example 1) (Digitaria ciliaris) | c: corn, effect on crop (criteria of Test Example 1) (corn) | Herbicidal effect grade, H: Echinochloa crus-galli var. crus-galli [5] | Herbicidal effect grade, K: Lolium multiflorum Lam. (Lolium multiflorum Lam. [6]) | R: Veronica persica, herbicidal effect (criteria of Test Example 1) (Veronica persica) |
| --- | --- | --- | --- | --- | --- | --- | --- | --- | --- | --- | --- | --- | --- | --- | --- | --- |
| CC(=O)CC1CC(O)=C(c2c(C)cc(Oc3ccccc3)cc2C)C1=O (stereo not drawn) [7-014] | 0 (Herbicidal ratio of 5% or lower (almost no effect)) | 0 (Herbicidal ratio of 5% or lower (almost no effect)) | 0 (Herbicidal ratio of 5% or lower (almost no effect)) | 0 (Herbicidal ratio of 5% or lower (almost no effect)) | 0 (Herbicidal ratio of 5% or lower (almost no effect)) | 0 (Herbicidal ratio of 5% or lower (almost no effect)) | 5 (Herbicidal ratio of 90% or more (almost completely withered)) | 0 (Herbicidal ratio of 5% or lower (almost no effect)) | 1 (Herbicidal ratio of 5% or higher and lower than 20%) | 5 (Herbicidal ratio of 90% or more (almost completely withered)) | 4 (Herbicidal ratio of 70% or higher and lower than 90%) | 5 (Herbicidal ratio of 90% or more (almost completely withered)) | 3 (Herbicidal ratio of 40% or higher and lower than 70%) | 0 (Herbicidal ratio of 5% or lower (almost no effect)) | 3 (Herbicidal ratio of 40% or higher and lower than 70%) | 0 (Herbicidal ratio of 5% or lower (almost no effect)) |
| CC(=O)CC1CC(O)=C(c2c(C)cc(-c3ccc(OC(F)(F)F)cc3)cc2C)C1=O (stereo not drawn) [7-016] | 0 (Herbicidal ratio of 5% or lower (almost no effect)) | 0 (Herbicidal ratio of 5% or lower (almost no effect)) | 0 (Herbicidal ratio of 5% or lower (almost no effect)) | 0 (Herbicidal ratio of 5% or lower (almost no effect)) | 0 (Herbicidal ratio of 5% or lower (almost no effect)) | 0 (Herbicidal ratio of 5% or lower (almost no effect)) | 0 (Herbicidal ratio of 5% or lower (almost no effect)) | 0 (Herbicidal ratio of 5% or lower (almost no effect)) | 0 (Herbicidal ratio of 5% or lower (almost no effect)) | 1 (Herbicidal ratio of 5% or higher and lower than 20%) | 0 (Herbicidal ratio of 5% or lower (almost no effect)) | 0 (Herbicidal ratio of 5% or lower (almost no effect)) | 0 (Herbicidal ratio of 5% or lower (almost no effect)) | 2 (Herbicidal ratio of 20% or higher and lower than 40%) | 0 (Herbicidal ratio of 5% or lower (almost no effect)) | 0 (Herbicidal ratio of 5% or lower (almost no effect)) |
| CC(=O)CC1CC(O)=C(c2c(C)cc(-c3ncccn3)cc2C)C1=O (stereo not drawn) [7-017] | 0 (Herbicidal ratio of 5% or lower (almost no effect)) | 0 (Herbicidal ratio of 5% or lower (almost no effect)) | 0 (Herbicidal ratio of 5% or lower (almost no effect)) | 0 (Herbicidal ratio of 5% or lower (almost no effect)) | 0 (Herbicidal ratio of 5% or lower (almost no effect)) | 0 (Herbicidal ratio of 5% or lower (almost no effect)) | 3 (Herbicidal ratio of 40% or higher and lower than 70%) | 0 (Herbicidal ratio of 5% or lower (almost no effect)) | 0 (Herbicidal ratio of 5% or lower (almost no effect)) | 5 (Herbicidal ratio of 90% or more (almost completely withered)) | 0 (Herbicidal ratio of 5% or lower (almost no effect)) | 5 (Herbicidal ratio of 90% or more (almost completely withered)) | 0 (Herbicidal ratio of 5% or lower (almost no effect)) | 0 (Herbicidal ratio of 5% or lower (almost no effect)) | 0 (Herbicidal ratio of 5% or lower (almost no effect)) | 0 (Herbicidal ratio of 5% or lower (almost no effect)) |
